What was measured:
mSCD3 [1] = target: T1, mSCD3 (Mus musculus, UniProt Q99PL7, V119A); experiment: Δ9-desaturase activity in microsomes of Hela cells over-expressing mSCD3; format: biochemical; design: Cloning of the full-length human and mouse SCD cDNAs: The full coding region of human SCDs; expressed in transfected cells; conditions: Hela microsomes 100 μg, 14C-acyl-CoA, NADH (FIG. 3)
T1 sequence (Q99PL7 1-359 V119A): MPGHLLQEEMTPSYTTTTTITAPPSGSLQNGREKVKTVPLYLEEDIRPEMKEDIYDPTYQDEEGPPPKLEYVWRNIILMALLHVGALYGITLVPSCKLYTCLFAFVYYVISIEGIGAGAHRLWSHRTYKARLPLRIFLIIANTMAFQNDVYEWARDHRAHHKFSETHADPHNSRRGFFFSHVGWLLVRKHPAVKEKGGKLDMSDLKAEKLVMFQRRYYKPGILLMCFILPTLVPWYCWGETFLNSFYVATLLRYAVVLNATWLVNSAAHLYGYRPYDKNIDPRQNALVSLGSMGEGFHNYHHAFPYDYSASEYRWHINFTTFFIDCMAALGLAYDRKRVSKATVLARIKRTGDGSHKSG

mSCD3 [2] = target: T1, mSCD3; experiment: Conversion of saturated fatty acids to Δ9 monounsaturated fatty acids in ole1 yeast L8-14C expressing mSCD3 (GLC); format: cell-based; design: Cloning of the full-length human and mouse SCD cDNAs: The full coding region of human SCDs; expressed in transfected cells; host or cells: Saccharomyces cerevisiae L8-14C (ole1 disruptant), vector p426GPD; conditions: for conversion of exogenous saturated fatty acid to Δ9 monounsaturated fatty acid: exogenous fatty acid 0.2 mM, 1% tergitol NP-40, yeast cultured 2 days (FIG. 2)

Compound | conversion of exogenous saturated fatty acid to Δ9 monounsaturated fatty acid (mSCD3 [2]) | also measured
CCCCCCCCCCCCCCCC(=O)SCCNC(=O)CCNC(=O)[C@H](O)C(C)(C)COP(=O)(O)OP(=O)(O)OC[C@H]1O[C@@H](n2cnc3c(N)ncnc32)[C@H](O)[C@@H]1OP(=O)(O)O [16:0-CoA, palmitoyl-CoA] | – | Δ9-desaturase activity towards 16:0-CoA relative to 18:0-CoA (mSCD3 [1]): 16 fold
CCCCCCCCCCCCCCCC(=O)O [16:0] | – | % conversion of fatty acid to Δ9 monounsaturated fatty acid (mSCD3 [2]; endogenous fatty acid, L8-14C transformant, YPD lacking unsaturated fatty acids, 3 days): 49%
CCCCCCCCCCCCCC(=O)O [14:0, myristic acid] | more than 50% | –
CCCCCCCCCCCCCCCCCCCC(=O)O [C20:0, eicosanoic acid] | None of Δ9-desaturase was able to utilize | –
CCCCCCCCCCCCCCCCC(=O)O [17:0, heptadecanoic acid] | undetectable | –
CCCCCCCCCCCCC(=O)O [13:0, tridecanoic acid] | 32% | –
